Reference: patent US5955431A, “Mast cell protease peptide inhibitors” (Brigham and Women's Hospital, Inc., priority 1998, dated 1999)
Values belong to the molecule of their own block, whether it stands above or below them. Where a SMILES comes first, the peptide text is derived from it. The star is where a group is joined. pNA = O=[N+]([O-])c1ccc(N*)cc1; Tos = Cc1ccc(S(=O)(=O)*)cc1; Bz = O=C(c1ccccc1)*

Key:
recombinant mMCP-6-FLAG = molecular target: T1, recombinant mMCP-6-FLAG (Mus musculus, UniProt P21845); test: spectrophotometric cleavage of trypsin-susceptible p-nitroanilide substrates by EK-activated mMCP-6-FLAG; type: biochemical; conditions: for cleavage of substrate by mMCP-6-FLAG: in the presence or absence of heparin; for cleavage of substrate by EK-activated tryptase (mMCP-6-FLAG): in the absence of heparin
T1 construct: endogenous pro-peptide followed by EK-susceptible peptide (Asp-Asp-Asp-Asp-Lys) (N, cleaved yes); made in house; host or cells: baculovirus; Spodoptera frugiperda 9 for virus, Trichoplusia ni High Five insect cells for expression
T1 sequence (P21845 32-276): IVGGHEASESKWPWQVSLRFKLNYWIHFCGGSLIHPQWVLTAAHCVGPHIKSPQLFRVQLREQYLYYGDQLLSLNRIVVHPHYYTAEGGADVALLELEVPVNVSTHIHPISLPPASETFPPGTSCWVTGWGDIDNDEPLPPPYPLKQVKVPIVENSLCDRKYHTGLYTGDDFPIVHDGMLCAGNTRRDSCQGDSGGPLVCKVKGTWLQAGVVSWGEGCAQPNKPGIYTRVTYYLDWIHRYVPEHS
Description: Purified pro-EK-mMCP-6-FLAG (~100 μg in 100 μl) was separately mixed with 100 μl of a pH 5.2 buffer consisting of 50 mM sodium acetate and 5 mM calcium chloride. One μl of a solution containing 550 U of calf intestine EK (Biozyme) was added to each, and the mixture was incubated at 37° C. generally for 3 h to allow EK to activate the zymogen in the absence of heparin. The spectrophotometric method of Svendsen and coworkers (Throm. Res. 1972, 1:267-278) was used to determine whether or not mMCP-6-FLAG is enzymatically active. Generally, 1-μl samples of each activation reaction were placed in 1 ml of a pH 7.4 buffer containing 25 mM sodium phosphate, 1 mM EDTA, and 50 μg of tosyl-Gly-Pro-Lys-p-nitroanilide. The change in optical density at 405 nm was then determined after a 3-min incubation at room temperature. The ability of recombinant mMCP-6-FLAG to cleave the trypsin-susceptible substrates tosyl-Gly-Pro-Arg-p-nitroanilide, benzoyl-Ile-Glu-Gly-Arg-p-nitroanilide, benzoyl-Pro-Phe-Arg-p-nitroanilide, and acetyl-Ile-Glu-Ala-Arg-p-nitroanilide were also evaluated.

recombinant mMCP-7-FLAG = molecular target: T2, recombinant mMCP-7-FLAG (Mus musculus, UniProt Q02844); test: cleavage of p-nitroanilide substrate by mMCP-7-FLAG; type: biochemical; conditions: in vitro
T2 construct: made in house; host or cells: insect cells (described in earlier work of the same group)
T2 sequence (Q02844 29-273): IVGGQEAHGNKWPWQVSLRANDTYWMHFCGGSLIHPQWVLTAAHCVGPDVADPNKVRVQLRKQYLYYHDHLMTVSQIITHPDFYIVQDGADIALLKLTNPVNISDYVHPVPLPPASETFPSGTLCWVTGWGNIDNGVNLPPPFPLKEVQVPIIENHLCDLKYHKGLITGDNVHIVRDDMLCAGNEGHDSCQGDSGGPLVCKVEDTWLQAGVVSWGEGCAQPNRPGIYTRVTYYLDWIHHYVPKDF

mouse fibronectin = test: in vitro degradation of fibronectin by recombinant tryptases; type: biochemical; conditions: for cleavage of fibronectin in vitro: SDS-PAGE of digests
Description: In Vitro Degradation of Fibronectin by Recombinant mMCP-6-FLAG--Five μg of purified mouse fibronectin (Alexis) was suspended in 1 mM EDTA and 25 mM sodium phosphate, pH 7.4, containing 0.01 U EK, 0.5 μg recombinant pro-EK-mMCP-6-FLAG, 0.5 μg recombinant mMCP-6-FLAG (activated with 0.01 U EK), or 0.5 μg recombinant mMCP-7FLAG (activated with 0.01 U EK). After an incubated for various lengths of times, the resulting digests were subjected to SDS-PAGE. In one experiment, the N-terminal amino acid sequences; of the major fibronectin fragments in the mMCP-FLAG digest were determined.

[1] = tested on: Swiss albino mouse skin-derived 3T3 fibroblasts; test: adhesion and growth of fibroblasts on fibronectin-coated culture dishes; type: cell-based; conditions: for adhesion/shape of fibroblasts on fibronectin-coated dishes: 15 min at 37° C.
Description: However, these cells will become less adhesive and divide in vitro when they are trypsin treated. To determine if mMCP-6-FLAG could specifically alter the growth and/or adhesion of these cells, the fibroblasts were allowed to attach to replicate fibronectin-coated culture dishes and then were incubated for 15 min at 37° C. with buffer alone or buffer containing either pro-EK-mMCP-6-FLAG, mMCP-6-FLAG, mMCP-7-FLAG, or trypsin. […] SDS-PAGE/immunoblot analysis of the supernatants from the result cultures confirmed that fibronectin was degraded in the mMCP-6-FLAG-treated cultures but not in the pro-EK-mMCP-6-FLAG or mMCP-7-FLAG treated cultures.

neutrophils = test: emigration of neutrophils into the peritoneal cavity after injection of tryptase; type: in vivo, BALB/c mice
Source text: mMCP-6-FLAG-Induced Emigration of Neutrophils Into the Peritoneal Cavity and mMCP-6-Induced Growth of Fibroblasts and their Adhesion to Fibronectin--This experiment is discussed below.
mMCP-6-Induced Emigration of Neutrophils Into the Peritoneal Cavity of BALB/c Mice--The mast cells that reside in the peritoneal cavity of BALB/c mice express mMCP-6 but not mMCP-7 (Stevens et al., Proc. Natl. Acad. Sci. USA 1994, 91:128-132). […] Thus, the direct or indirect chemotaxis activity of mMCP-6 is relatively neutrophil specific. It also appears that tryptase treatment results in a relatively persistent recruitment of neutrophils into the peritoneal cavity.

Molecule: Cc1ccc(S(=O)(=O)NCC(=O)N2CCC[C@H]2C(=O)N[C@@H](CCCCN)C(=O)Nc2ccc([N+](=O)[O-])cc2)cc1 [tosyl-Gly-Pro-Lys-p-nitroanilide] (Tos-Gly-Pro-Lys-pNA)
cleavage of substrate by EK-activated tryptase (mMCP-6-FLAG) (recombinant mMCP-6-FLAG): readily cleaves

Molecule: mMCP-7-FLAG: EK-activated recombinant mouse mast cell protease 7 (tryptase) with FLAG peptide
cleavage of fibronectin in vitro (mouse fibronectin): not
contact inhibition of treated fibroblasts [1]: do not lose their contact inhibition
rate of proliferation of treated fibroblasts [1]: do not increase their rate of proliferation
adhesion/shape of fibroblasts on fibronectin-coated dishes [1]: continued to adhere
neutrophil chemotaxis activity in the in vivo assay (neutrophils; enzymatically active tryptase, peritoneal cavity): very little, if any

B1: mMCP-6-FLAG: EK-activated recombinant mouse mast cell protease 6 (tryptase) with the FLAG peptide attached to its C-terminus (protein, UniProt P21845 32-276, looked up)
Tryptase beta-2: T1 sequence (P21845 32-276)
modifications: C-terminal FLAG tag
pH of optimal enzymatic activity (recombinant mMCP-6-FLAG; recombinant, EK-activated): ~7.4
number of fibronectin fragments obtained (mouse fibronectin; 60-min incubation, tryptase bound to heparin): 2 fragments
adhesion/shape of fibroblasts on fibronectin-coated dishes [1]: rapidly induced the cultured fibroblasts to round up
fibroblasts remaining attached to the culture dish ([1]; 40 min incubation): very few fibroblasts remained attached
degradation of fibronectin in culture supernatants ([1]; SDS-PAGE/immunoblot analysis): degraded
persistence of induced neutrophilia (neutrophils; kinetic experiments, peritoneal cavity): at least 3 days
influx of neutrophils in the peritoneal cavity (neutrophils; six to 36 h after intraperitoneal administration): pronounced influx of neutrophils

B2: mMCP-6-FLAG/heparin complex: recombinant mMCP-6-FLAG bound to heparin glycosaminoglycan (protein, UniProt P21845 32-276, looked up)
Tryptase beta-2: T1 sequence (P21845 32-276)
modifications: C-terminal FLAG tag; complexed with heparin
cleavage of fibronectin in vitro (mouse fibronectin): readily cleaved

More lines, now with the values ahead:

cleavage of substrate by mMCP-6-FLAG (recombinant mMCP-6-FLAG): does not effectively cleave
cleavage of substrate by mMCP-7-FLAG compared with mMCP-6-FLAG (recombinant mMCP-7-FLAG): much better than mMCP-6-FLAG
Molecule: CC[C@H](C)[C@H](NC(C)=O)C(=O)N[C@@H](CCC(=O)O)C(=O)N[C@@H](C)C(=O)N[C@@H](CCCN=C(N)N)C(=O)Nc1ccc([N+](=O)[O-])cc1 [acetyl-Ile-Glu-Ala-Arg-p-nitroanilide] (Ac-IEAR-pNA)

cleavage of substrate by mMCP-6-FLAG (recombinant mMCP-6-FLAG): does not effectively cleave
Molecule: CC[C@H](C)[C@H](NC(=O)c1ccccc1)C(=O)N[C@@H](CCC(=O)O)C(=O)NCC(=O)N[C@@H](CCCNC(=N)N)C(=O)Nc1ccc([N+](=O)[O-])cc1 [benzoyl-Ile-Glu-Gly-Arg-p-nitroanilide] (Bz-IEGR-pNA)

cleavage of substrate by mMCP-6-FLAG (recombinant mMCP-6-FLAG): does not effectively cleave
Molecule: N=C(N)NCCC[C@H](NC(=O)[C@H](Cc1ccccc1)NC(=O)[C@@H]1CCCN1C(=O)c1ccccc1)C(=O)Nc1ccc([N+](=O)[O-])cc1 [benzoyl-Pro-Phe-Arg-p-nitroanilide] (Bz-Pro-Phe-Arg-pNA)

cleavage of substrate by EK-activated tryptase (mMCP-6-FLAG) (recombinant mMCP-6-FLAG): readily cleaves
Molecule: Cc1ccc(S(=O)(=O)NCC(=O)N2CCC[C@H]2C(=O)N[C@@H](CCCNC(=N)N)C(=O)Nc2ccc([N+](=O)[O-])cc2)cc1 [tosyl-Gly-Pro-Arg-p-nitroanilide] (Tos-Gly-Pro-Arg-pNA)
